Patent publication US4062956A, “Substituted 2-(2-hydroxyethyl)tetrahydro-1,4 oxazines and quaternary salts thereof useful for treating spasmodic syndromes” (Centre Europeen de Recherches Mauvernay, priority 1975, dated 1977)

Key:
[1] = test system: smooth muscle spasms induced by acetylcholine, histamine and Ba^++ ions; assay: Type of antagonist exerted, overall from the isolated organ tests (acetylcholine, histamine, Ba^++); set-up: species or system rat; guinea pig; details: for TYPE OF ANTAGONIST EXERTED: Table I, over the three agonists; for mechanism and intensity of action compared with Tiemonium and papaverine: interpretation of Table I by principles of molecular pharmacology (ARIENS)
Procedure: (§1) The pharmacological studies of the compounds according to the invention were directed essentially to the elucidation of the antispasmodic potentialities of the cations, particularly at the level of smooth muscle spasms induced by acetylcholine, histamine and Ba^++ ions. […] The isolated organs were kept alive in a thermostatic oxygen Tyrode solution at 30° C and their contractions were recorded.

[2] = test system: smooth muscle spasms induced by Ba^++ ions (ileum of the guinea pig); assay: In vitro antagonism of Ba^++-induced smooth muscle spasm, isolated ileum of the guinea pig (technique of MAGNUS); details: agonist Ba^++, oxygen Tyrode solution, 30° C
Procedure: as §1

[3] = biological target: T1, smooth muscle spasms induced by histamine (ileum of the guinea pig) (Cavia porcellus, UniProt P31389); assay: In vitro antagonism of histamine-induced smooth muscle spasm, isolated ileum of the guinea pig (technique of MAGNUS); details: agonist histamine, oxygen Tyrode solution, 30° C; for Kb: read-out: pA2 (converted)
T1 construct: The isolated organs were kept alive in a thermostatic oxygen Tyrode solution at 30° C; from tissue; host or cells: isolated guinea pig ileum
Procedure: The pharmacological studies of the compounds according to the invention were directed essentially to the elucidation of the antispasmodic potentialities of the cations, particularly at the level of smooth muscle spasms induced by acetylcholine, histamine and Ba^++ ions. These investigations were carried out in vitro according to the technique of MAGNUS (Pflug. Arch. Ges. Physiol. 1904, 102, 349, and 1904, 103, 515 and 525) by using as biological indicators the jejunum of the rat for the first agonist and the ileum of the guinea pig for the two other agonists. The isolated organs were kept alive in a thermostatic oxygen Tyrode solution at 30° C and their contractions were recorded.
The response curve line as a function of the dose enabled the calculation of the affinity parameters (pA2 and pD'2) of the compounds according to the invention for the different types of receptor (VAN ROSSUM J.M. - Arch. Int. Pharmacodyn. 1963, 143, 299 -330).

[4] = biological target: T2, smooth muscle spasms induced by acetylcholine (jejunum of the rat) (Rattus norvegicus, UniProt P08483); assay: In vitro antagonism of acetylcholine-induced smooth muscle spasm, isolated jejunum of the rat (technique of MAGNUS); details: agonist acetylcholine, oxygen Tyrode solution, 30° C; for Kb: read-out: pA2 (converted)
T2 construct: The isolated organs were kept alive in a thermostatic oxygen Tyrode solution at 30° C; from tissue; host or cells: isolated rat jejunum
Procedure: as §1

[5] = test system: smooth muscle spasms induced by acetylcholine (jejunum of the rat); assay: as above; details: agonist acetylcholine, oxygen Tyrode solution, 30° C
Procedure: as §1

T1 sequence (P31389 whole entry): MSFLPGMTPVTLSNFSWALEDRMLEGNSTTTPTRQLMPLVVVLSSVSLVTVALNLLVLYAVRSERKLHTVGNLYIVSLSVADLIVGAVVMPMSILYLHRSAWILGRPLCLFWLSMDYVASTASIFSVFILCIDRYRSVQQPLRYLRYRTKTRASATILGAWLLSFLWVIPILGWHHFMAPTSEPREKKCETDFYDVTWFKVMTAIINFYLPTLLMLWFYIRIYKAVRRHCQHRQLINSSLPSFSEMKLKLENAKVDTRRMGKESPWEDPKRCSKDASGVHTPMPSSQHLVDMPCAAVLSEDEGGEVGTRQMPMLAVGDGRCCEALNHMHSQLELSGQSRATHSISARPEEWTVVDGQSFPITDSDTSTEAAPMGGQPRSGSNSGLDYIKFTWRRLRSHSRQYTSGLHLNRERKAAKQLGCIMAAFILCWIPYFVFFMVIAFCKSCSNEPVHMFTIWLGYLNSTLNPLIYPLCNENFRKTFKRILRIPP
T2 sequence (P08483 whole entry): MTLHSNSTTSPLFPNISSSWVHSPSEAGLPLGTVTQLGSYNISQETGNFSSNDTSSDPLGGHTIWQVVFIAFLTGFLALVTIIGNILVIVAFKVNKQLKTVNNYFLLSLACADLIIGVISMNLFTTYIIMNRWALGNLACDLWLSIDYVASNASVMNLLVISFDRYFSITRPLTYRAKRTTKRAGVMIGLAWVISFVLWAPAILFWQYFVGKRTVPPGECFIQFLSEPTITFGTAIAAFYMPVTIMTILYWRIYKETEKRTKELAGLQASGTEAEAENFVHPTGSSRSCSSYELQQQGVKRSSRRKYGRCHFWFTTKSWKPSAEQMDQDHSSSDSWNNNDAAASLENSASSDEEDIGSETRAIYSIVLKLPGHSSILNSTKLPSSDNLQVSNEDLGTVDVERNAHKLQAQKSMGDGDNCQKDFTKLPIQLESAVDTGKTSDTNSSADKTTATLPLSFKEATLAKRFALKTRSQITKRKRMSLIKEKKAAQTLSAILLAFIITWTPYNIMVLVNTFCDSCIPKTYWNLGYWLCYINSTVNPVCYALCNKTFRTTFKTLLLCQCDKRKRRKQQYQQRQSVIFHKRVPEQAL

Row | pA2 [3] | pA2 [4] | Kb [3] | Kb [4] | Compound | TYPE OF ANTAGONIST EXERTED [1] | pA2 [2] | mechanism and intensity of action compared with Tiemonium and papaverine [1] | pD'2 [2] | pD'2 [3] | pD'2 [5]
1 | 5.21 | 7 |  |  | Tiemonium [reference compound] | Competitive | 4.95 |  |  |  | 
2 |  |  | 6.31 µM | 0.2 µM | C[N+]1(C)CCOC(CC(O)(c2ccccc2)c2ccccc2)C1 (centres unmarked) [Compound 2] | Competitive | 4.90 | great similarity of mechanism and intensity of action between compound no 2 and Tiemonium |  |  | 
3 |  |  | 10 µM | 3.47 µM | C[N+]1(C)CCOC(CC(O)(c2ccc(F)cc2)c2ccc(F)cc2)C1 (centres unmarked) [Compound 7] | Dualist | 5.87 | a mechanism of action which brings into play at the same time the competitive mechanism of Tiemonium and the non-competitive mechanism of papaverine | 4.04 | 3.70 | 3.21
4 |  |  |  |  | COc1ccc(Cc2nccc3cc(OC)c(OC)cc23)cc1OC [Papaverine, papaverine, reference compound] |  |  |  | 4.78 | 4.98 | 5.03
